According to US20240408064A1, “RAS INHIBITORS, COMPOSITIONS AND METHODS OF USE THEREOF” (GENETOLEAD INC., priority 2021, published 2024):

Experiments:
HRas^G12V [1] = target: T1, HRas^G12V (Homo sapiens (Human), UniProt P01112, G12V); assay: 19F T2-CPMG NMR score; format: binding
Protocol: (§1) All NMR experiments were collected using 3 mm NMR tubes on a 600 MHz Bruker Avance III spectrometer equipped with a QCI helium cryoprobe and a SampleJet sample changer. The buffer used for NMR experiments was 25 mM sodium phosphate pH 7.4, 150 mM NaCl, 5 mM MgCl2, 1 mM TCEP-d16, 10% D2O. Data were processed using Bruker TopSpin.
(§2) Since the fragment library was curated using phosphate buffer, 25 mM sodium phosphate pH 7.4, 150 mM NaCl, 5 mM MgCl2, 1 mM TCEP-d16, 10% D2O Fresh TCEP was used for experiments. Screening was performed using ^1H-decoupled 1D ^19F experiment Bruker experiment (zgfhigqn.2) with 64 scans and a relaxation delay of 5 seconds. 50 μM HRas^G12V and 240 μM of each fragment in pools (mixtures) were used.
(§3) Hit confirmation was performed using the same ^19F experiment as the screen. Ligand-observed 1D ^1H, protein-observed 1D ^1H, ^1H T2-CPMG as well as Saturation Transfer Difference (STD) experiments were also run on the same samples. Ligand-observed 1D ^1H was run using the standard Bruker sequence with excitation sculpting (zgesgp) with a relaxation delay of 10 seconds and 16 scans per spectrum. Protein-observed 1D ^1H was performed using the same sequence with a relaxation delay of 1 second and 256 scans in order to increase the signal-to-noise of the protein resonances, while keeping the experimental time relatively short. The ^1H T2-CPMG experiment employed a modified version of the Bruker 1D ^1H zgesgp experiment with the addition of a CPMG pulse train after the first 90° excitation pulse. Total duration for each spin echo was fixed at 1 ms (τ=500 μs), while the number of echoes in the pulse train was varied according to the total time (T). The number of scans for each spectrum was 4 and eight delay times were run on each sample, ranging from 1 ms to 800 ms.
Because of its power to probe the intrinsically weak interactions (Kd) between targets and low-molecular weight fragments, NMR fragment-based lead discovery (FBLD) is a very useful biophysical method in early stage drug discovery, especially for challenging target proteins; including those with shallow binding pockets. Since FBLD screens are performed using low-molecular weight compounds (fragments) with lower structural complexity, the same chemical space can be covered using a smaller number of drug-like fragments versus use of large libraries of higher-molecular weight lead-like compounds as in high throughput screening (HTS) campaigns. Therefore, FBLD has a much higher hit rate than HTS using only several hundred to several thousand compounds in comparison with approximately 1 million compounds for HTS. Also, the small size of the compounds screened in FBLD means a better chance to fully match the interactions with small or transient pockets within the target protein, where these less tractable pockets cannot be accessed with standard classical HTS methods. […] We expect this methodology to be more advantageous than classical HTS methods for expediting the time from hit to lead (H2L) and allows for rapid access to high quality leads with lower attrition rates in subsequent lead optimization (LO) campaigns toward pre-clinical candidate selection. FBLD screening by NMR involves a “consensus binding” approach where several distinct NMR experiments (DLB, STD, CPMG) are applied along with a free-state aggregation detection method (T2-CPMG) to rank the compounds for their affinity to the receptor (HRAS in this case) whilst simultaneously monitoring the solution behavior and critical quality attributes of each compound. The latter helps to eliminate artifact binders which are highly problematic. We performed a fluorine screen involving 461 compounds that were derived from a highly curated fragment library. Moreover, two-dimensional ^15N HSQC NMR was also used to validate ligand-binding sites on the target protein. […]

HRas^G12V [2] = target: T1, HRas^G12V; assay: 19F DLB (ligand-observed 19F NMR) score; format: binding; design: scale not given here
Protocol: as §1, §2
as §3, with “ms. […]” for “ms.”

T1 sequence (P01112 1-166 G12V): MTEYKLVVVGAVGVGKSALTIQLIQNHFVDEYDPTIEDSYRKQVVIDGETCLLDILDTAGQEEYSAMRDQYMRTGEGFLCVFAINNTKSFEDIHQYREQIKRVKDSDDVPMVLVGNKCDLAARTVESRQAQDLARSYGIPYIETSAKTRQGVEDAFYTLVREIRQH

19F T2-CPMG Score (HRas^G12V [1])	19F DLB Score (HRas^G12V [2])	Structure (SMILES)
10.14	1.54	CN1CCC(NC(=O)Cc2c[nH]c3cc(F)ccc23)C(C(=O)O)C1 (centres unmarked) [Compound 10117, 4-(2-(6-fluoro-1H-indol-3-yl)acetamido)-1-methylpiperidine-3-carboxylic acid]
13.94	2.34	O=C(Cc1c[nH]c2cc(F)ccc12)N1CCCC(O)C1 (centres unmarked) [Compound 10120]
9.62	1.68	O=C(Cc1c[nH]c2cc(F)ccc12)N1C[C@H]2CC[C@@H](C1)O2 [Compound 10122]
12.49	1.82	COC(C)C1CN(C(=O)Cc2c[nH]c3cc(F)ccc23)C1 (centres unmarked) [Compound 10124, 2-(6-fluoro-1H-indol-3-yl)-1-(3-(1-methoxyethyl)azetidin-1-yl)ethan-1-one]
10.15	1.56	O=C(O)[C@H]1CCCCN1C(=O)Cc1c[nH]c2cc(F)ccc12 [Compound 10125]
13.7	4.22	CCOC(=O)[C@@H]1CCCCN1C(=O)Cc1c[nH]c2cc(F)ccc12 [Compound 10126]
13.67	2.85	CCOC(=O)[C@H]1CCCCN1C(=O)Cc1c[nH]c2cc(F)ccc12 [Compound 10128]
3.92	1.27	O=C(O)C1CCN(C(=O)Cc2c[nH]c3cc(F)ccc23)CC1 [Compound 10129]
12.1	2.09	CCOC(=O)CC1CCN(C(=O)Cc2c[nH]c3cc(F)ccc23)CC1 [Compound 10130]
20.77	2.17	CC(O)C1CN(C(=O)Cc2c[nH]c3cc(F)ccc23)C1 (centres unmarked) [Compound 10131, 2-(6-fluoro-1H-indol-3-yl)-1-(3-(1-hydroxyethyl)azetidin-1-yl)ethan-1-one]
13.29	2.01	CCOC(=O)C1CCN(C(=O)Cc2c[nH]c3cc(F)ccc23)CC1 [Compound 10132]
13.32	2.1	COCC1(C)CN(C(=O)Cc2c[nH]c3cc(F)ccc23)C1 [Compound 10134, 2-(6-fluoro-1H-indol-3-yl)-1-(3-(methoxymethyl)-3-methylazetidin-1-yl)ethan-1-one]
14.25	1.98	CC(=O)C1CN(C(=O)Cc2c[nH]c3cc(F)ccc23)C1 [Compound 10138]
4.54	1.93	CC(=O)N[C@H]1CCCN(C(=O)Cc2c[nH]c3cc(F)ccc23)C1 [Compound 10139, (S)—N-(1-(2-(6-fluoro-1H-indol-3-yl)acetyl)piperidin-3-yl) acetamide]
9.44	1.93	CC1CN(C(=O)Cc2n[nH]c3cc(F)ccc23)C1 [Compound 10144, 2-(6-fluoro-1H-indazol-3-yl)-1-(3-methylazetidin-1-yl)ethan-1-one]
16.13	1.64	O=C1CN(C(=O)Cc2c[nH]c3cc(F)ccc23)CCN1 [Compound 10145]
9.75	1.56	CN1CCN(C(=O)Cc2c[nH]c3cc(F)ccc23)CC1=O [Compound 10146]
19.87	2.3	O=C(Cc1c[nH]c2cc(F)ccc12)N1CCO[C@@H](CO)C1 [Compound 10147, (R)-2-(6-fluoro-1H-indol-3-yl)-1-(2-(hydroxymethyl)morpholino) ethan-1-one]
12.46	1.87	O=C(Cc1c[nH]c2cc(F)ccc12)N1CCO[C@H](CO)C1 [Compound 10148]

19F T2-CPMG Score (HRas^G12V [1])	19F DLB Score (HRas^G12V [2])	Structure (SMILES)
8.16	1.62	COC[C@H]1CN(C(=O)Cc2c[nH]c3cc(F)ccc23)CCO1 [Compound 10154, (R)-2-(6-fluoro-1H-indol-3-yl)-1-(2-(methoxymethyl)morpholino)ethan-1-one]
7.87	2.07	CCOC(=O)[C@@H]1CCCN(C(=O)Cc2c[nH]c3cc(F)ccc23)C1 [Compound 10161]
16.59	3.19	CCC(C(=O)N1CC(C)C1)c1c[nH]c2cc(F)ccc12 (centres unmarked) [Compound 11005]
16.89	1.86	CC(C)(C)OC(=O)N1CCC(C(=O)N2CCC(c3c[nH]c4cc(F)ccc34)CC2)C1 (centres unmarked) [Compound 11017]
9.96	2.51	O=C(c1ccc(F)cc1F)N1CCC(c2c[nH]c3cc(F)ccc23)C1 (centres unmarked) [Compound 11018]
12.9	2.2	O=C(C1CCC(O)CC1)N1CCC(c2c[nH]c3cc(F)ccc23)C1 (centres unmarked) [Compound 11019]
15.24	2.23	CC(=O)Nc1cccc(C(=O)N2CCC(c3c[nH]c4cc(F)ccc34)CC2)c1 [Compound 11020]
39.09	3.35	O=C(c1ccccc1)N1CCC(c2c[nH]c3cc(F)ccc23)C1 (centres unmarked) [Compound 11021]
5.71	3.43	O=C(c1cccc(F)c1)N1CCC(c2c[nH]c3cc(F)ccc23)C1 (centres unmarked) [Compound 11022]
16.39	3.07	CC(=O)Nc1cccc(C(=O)N2CCC(c3c[nH]c4cc(F)ccc34)C2)c1 (centres unmarked) [Compound 11023]
9.57	1.89	CC(=O)N1CCC(C(=O)N2CCC(c3c[nH]c4cc(F)ccc34)C2)CC1 (centres unmarked) [Compound 11024]
13.23	2.48	O=C(C1CCC(O)CC1)N1CCC(c2c[nH]c3cc(F)ccc23)CC1 (centres unmarked) [Compound 11027]
10.24	1.93	CC(=O)N1CCC(C(=O)N2CCC(c3c[nH]c4cc(F)ccc34)CC2)CC1 [Compound 11029]
21.82	2.9	CN(C)Cc1ccc(NC(=O)C(C#N)c2c[nH]c3cc(F)ccc23)cc1 (centres unmarked) [Compound 11030]
38.39	1.97	N#CC(C(=O)N[C@@H](Cc1ccc(O)cc1)C(=O)O)c1c[nH]c2cc(F)ccc12 (some centres unmarked) [Compound 11031]
39.41	1.7	CC1CN(C(=O)C(CC(=O)O)c2c[nH]c3cc(F)ccc23)C1 (centres unmarked) [Compound 11034]
19.33	1.76	O=C(C1CCNC1)N1CCC(c2c[nH]c3cc(F)ccc23)C1 (centres unmarked) [Compound 11036]
16.77	2.12	O=C(C1CCCNC1)N1CCC(c2c[nH]c3cc(F)ccc23)C1 (centres unmarked) [Compound 11037]
16.24	2.77	O=C(O)CC(c1ccccc1F)c1c[nH]c2cc(F)ccc12 (centres unmarked) [Compound 11044]

Structure (SMILES)	19F T2-CPMG Score (HRas^G12V [1])	19F DLB Score (HRas^G12V [2])
COC(=O)[C@@H]1CN(C)CCN1C(=O)Cc1c[nH]c2cc(F)ccc12 [Compound 10167]	5.07	3.62
Fc1ccc2c(C3CCNCC3)c[nH]c2c1 [Compound 11012]	13.63	2.58
